US20250019378A1, “PYRROLE[2,3-B]PYRIDINE DERIVATIVES AS TYRO3 INHIBITORS” (HALIA THERAPEUTICS, INC., priority 2021, published 2025)

Target: recombinant human Tyro3 (Homo sapiens (Human), UniProt Q06418)
Assay: Tyro3 Enzymatic Assay
Assay type: biochemical
Conditions: radiometric [32P]-ATP kinase assay, Poly(Glu, Tyr) substrate, 2 nM enzyme
Procedure: Poly(Glu, Tyr) sodium salt (Glu:Tyr (4:1), quality level 200, molecular weight 5,000-20,000, obtained from Sigma Aldrich, catalogue #P7244, assay concentration 0.20 mg/mL) and recombinant human Tyro3 (obtained from ThermoFisher Scientific, catalogue #PV3828, assay concentration 2 nM) were mixed in assay buffer (20 mM Hepes pH 7.5, 10 mM MgCl2, […] EGTA, 0.02% Brij35, 0.02 mg/ml BSA, 0.1 mM Na3VO4, 2 mM DTT, 1% DMSO, with added MnCl2 at a final concentration of 2 mM). Compounds of interest (in DMSO, serial 3-fold dilution from 10 μM to 0.5 nM) or control (1% DMSO) were dispensed into the kinase reaction mixture by Acoustic technology (Echo550; nanoliter range). After incubation at room temperature for 20 minutes, the kinase reaction was initiated by addition of [^32P]-ATP (Specific activity 10 μCi/μL) and the mixture was incubated at room temperature for 2 hours. The reaction was then stopped by spotting the reaction mixture on strips of phosphocellulose P81 paper. Following washing, the radioactivity of the P81 paper was measured and kinase activity data were expressed as the percent remaining kinase activity in test samples compared to vehicle (dimethyl sulfoxide) reactions. IC50 values and curve fits were obtained using Prism (GraphPad Software).

Sequence of recombinant human Tyro3 (Q06418 41-890): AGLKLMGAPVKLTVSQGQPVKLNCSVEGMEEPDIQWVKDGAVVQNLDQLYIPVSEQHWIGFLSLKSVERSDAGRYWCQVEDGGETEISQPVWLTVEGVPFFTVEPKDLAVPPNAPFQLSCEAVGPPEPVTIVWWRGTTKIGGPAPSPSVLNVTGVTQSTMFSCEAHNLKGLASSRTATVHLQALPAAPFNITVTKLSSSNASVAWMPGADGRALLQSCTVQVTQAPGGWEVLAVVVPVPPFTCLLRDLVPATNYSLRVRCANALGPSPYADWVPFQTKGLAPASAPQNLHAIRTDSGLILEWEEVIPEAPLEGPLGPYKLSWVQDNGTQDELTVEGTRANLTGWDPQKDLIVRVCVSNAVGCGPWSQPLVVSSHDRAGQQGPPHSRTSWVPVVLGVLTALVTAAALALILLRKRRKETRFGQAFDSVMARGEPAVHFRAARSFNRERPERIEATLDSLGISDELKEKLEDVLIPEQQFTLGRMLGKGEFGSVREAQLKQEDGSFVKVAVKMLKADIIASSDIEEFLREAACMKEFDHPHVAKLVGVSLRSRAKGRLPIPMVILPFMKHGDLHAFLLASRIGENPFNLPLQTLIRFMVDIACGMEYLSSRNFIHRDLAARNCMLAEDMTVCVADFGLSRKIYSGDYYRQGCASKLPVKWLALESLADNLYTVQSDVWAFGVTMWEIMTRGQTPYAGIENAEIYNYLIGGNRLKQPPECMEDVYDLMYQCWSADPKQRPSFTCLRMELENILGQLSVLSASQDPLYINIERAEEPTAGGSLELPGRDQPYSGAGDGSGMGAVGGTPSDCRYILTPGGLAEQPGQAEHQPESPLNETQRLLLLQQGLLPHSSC

| IC50 | Structure (SMILES) |
| --- | --- |
| 0.051 to 0.15 µM | CCc1[nH]c2ncc(-c3cn(C4CCN(C)CC4)nc3OC)cc2c1-c1cccc(C(F)F)c1 [Compound 27, 3-(3-(difluoromethyl)phenyl)-2-ethyl-5-(3-methoxy-1-(1-methylpiperidin-4-yl)-1H-pyrazol-4-yl)-1H-pyrrolo[2,3-b]pyridine] |
| 0.151 to 0.501 µM | COc1ccc(-c2c[nH]c3ncc(-c4cn(C5CCN(C)CC5)nc4C)cc23)cn1 [Compound 8, 3-(6-methoxypyridin-3-yl)-5-(3-methyl-1-(1-methylpiperidin-4-yl)-1H-pyrazol-4-yl)-1H-pyrrolo[2,3-b]pyridine] |
